# From patent publication US20170087129A1, “COMPOSITIONS AND METHODS FOR THE TREATMENT OF ATHEROSCLEROTIC CARDIOVASCULAR DISEASES WITH PDE4 MODULATORS” (Celgene Corporation, priority 2014, published 2017)
# Assays:
# [1] = tested on: PDE4 enzyme from U937 human monocytic cells; experiment: Inhibition of PDE4 (enzyme assay, [3H]-cAMP); assay type: biochemical; settings: purified PDE4 enzyme from U937 human monocytic cells; 1 μM cAMP, 45 min at 30° C.
# Method: Phosphodiesterase 4 enzyme was purified from U937 human monocytic cells by gel filtration chromatography, and phosphodiesterase reactions were carried out as previously described. See, e.g., Muller et al., Bioorg. Med. Chem. Lett., 1998, 8(19): 2669-2674. Briefly, reactions were carried out in 96-well deep-well plates in 50 mM Tris HCl pH 7.5, 5 mM MgCl2, 1 μM cyclic adenosine monophosphate (cAMP), plus 10 nM [^3H]-cAMP for 45 min at 30° C. The reactions were terminated by boiling, treated with 1 mg/ml snake venom, and separated using AG-1X8 ion exchange resin (BioRad). Reactions consumed less than 15% of available substrate.
# [2] = tested on: THP-1 cells; experiment: Inhibition of foam cell formation in THP-1 cells (Oil Red O staining); assay type: cell-based; settings: THP-1 cells + PMA, 50 μg/ml acLDL + 500 U/ml IFN-γ; two doses of 100 nM compound; versus vehicle samples; light microscopy
# Method: THP-1 cells in suspension were maintained in RPMI 1640 media (PenStep, 10% FBS, 37° C., 5% CO2). The cells plated at 10^5-10^6 cells/well in 24-well plate (500 uL/well). Cell count was 34 at 1:20 and 1:30 dilution. Then, 100 nM PMA was added to allow for differentiation into macrophages, and the mixture was incubated for 24 hours. To the mixture, was added 500 U/mL IFN-gamma, and the resulting mixture was incubated for another 24 hours.
# For vehicles, 50 μg/ml of acLDL and 500 U/ml IFN-γ were added to the cells. For those samples that received treatment by Compound A1, a first dose of 100 nM of Compound A1 was added 15 minutes before the addition of acLDL, and a second dose of 100 nM Compound A1 was added after 24 hours. Then, media was removed, and cells washed three times with PBS and fixed in 10% formalin for 10 minutes. Cells were rinsed in PBS (1 minute) and then with 60% isopropanol (15 seconds). Samples were stained with Oil Red O in darkness for 1 minute at 37° C. Samples were rinsed again in 60% isopropanol, then three times with PBS. Wells were kept hydrated until imaging, and samples were visualized using light microscopy.
SMILES,IC50 [1] [nM],formation of foam cells [2]
"CCOc1cc([C@@H](CS(C)(=O)=O)N2C(=O)c3cccc(NC(C)=O)c3C2=O)ccc1OC [Compound A1, (S)—N-(2-(1-(3-ethoxy-4-methoxyphenyl)-2-(methylsulfonyl)ethyl)-1,3-dioxoisoindolin-4-yl)acetamide]",~74,significantly reduced formation of foam cells
"CCOc1cc([C@H](CS(C)(=O)=O)N2C(=O)c3cccc(NC(C)=O)c3C2=O)ccc1OC [Compound A2, (R)—N-(2-(1-(3-ethoxy-4-methoxyphenyl)-2-(methylsulfonyl)ethyl)-1,3-dioxoisoindolin-4-yl)acetamide]",,effective in preventing or inhibiting the formation of foam cells
